{"source": "paper PMC10224356", "about": "“Trisubstituted 1,3,5-Triazines as Histamine H4 Receptor Antagonists with Promising Activity In Vivo” (Molecules, 2023)", "key": {"[1]": {"system": "rats", "experiment": "Carrageenan-induced inflammatory pain and oedema", "format": "in vivo", "from_the_text": "We wanted to confirm the activity in an additional model of inflammation in another species. To evaluate the influence of compound 6 on acute inflammation, such as oedema and hyperalgesia, we tested it in the carrageenan-induced inflammation model in rats. […] As oedema is one of the most significant symptoms of inflammation resulting from the release of inflammatory mediators, we may conclude that compound 6 has some anti-inflammatory activity. […] The response to mechanical stimuli was observed as the pain withdrawal threshold (Figure 8B) decreased from the value of 138.33 ± 1.05 g (baseline) before carrageenan injection to the value of 120.83 ± 2.0 g (87.3% of the baseline) 3 h after injection, 125.83 ± 2.51 (90.9% of the baseline) 6 h after injection, and 124.17 ± 2.0 (89.7% of the baseline). […] The results obtained confirmed its analgesic activity in mechanical inflammatory hyperalgesia. […] We claim that the effect may result from the inhibition of the release of inflammatory mediators and subsequent inhibition of peripheral and central sensitization. […] The effect was not as persistent as in the mechanical hyperalgesia and was observed only 1, 2 and 3 h after induction of inflammation.\nThe procedure used was described previously. Briefly, the inflammation and paw oedema was induced by subplantar injection of 0.1 mL of 1% carrageenan (made in PBS) into the right hind paw of the rat. The paw volume was measured by the dislocation of the water column of the plethysmometer (Plethysmometer 7140, Ugo Basile). The hyperalgesic response to mechanical stimuli was measured using Analgesy Meter 37215, Ugo Basile. The intensity of the applied force, in grams, was recorded when the paw was withdrawn (withdrawal threshold). Moreover, the hyperalgesic response to thermal stimuli was determined by using a plantar test apparatus (Commat Ltd., Ankara, Turkey). The latency to the heat stimulus was automatically recorded. Three subsequent applications of the heating stimulus were done, separated by 1- to 2-min intervals, and the mean of these measures was taken.\nFigure 8 Effect of compound 6 on carrageenan-induced oedema (A), mechanical hyperalgesia (B) and thermal hyperalgesia (C) developed after subplantar injection of 1% carrageenan in rats. Data are expressed as means ± SEM for 5–6 animals. Time 0—the initial reaction considered as the nociceptive reaction before carrageenan administration. Statistical significance compared to vehicle-treated animals: * p < 0.05, ** p < 0.01, *** p < 0.001, **** p < 0.0001. Statistical analysis: two-way ANOVA post hoc Bonferroni test. Statistical significance compared to initial value (0 time point) in the vehicle-treated group: # p < 0.05, ## p < 0.01, ### p < 0.0001. Statistical analysis: one-way ANOVA followed by Dunnett’s post hoc test."}, "[2]": {"system": "SH-SY5Y cells", "experiment": "Toxicity evaluation, MTS assay in SH-SY5Y cells", "format": "cell-based, human", "from_the_text": "Toxic substances can affect the cells. Early in the research process, it is crucial to determine whether obtained compounds can induce such effects. From our series of compounds, compound 6 was selected for toxicity evaluation. MTS assay was used to test toxicity on HepG2 and SH-SY5Y cell lines. HepG2 cells closely reflect the human liver cell model whereas SH-SY5Y neuroblastoma cells are used in models of neurodegenerative diseases (especially Parkinson’s disease) to study the cellular and molecular factors that lead to these disorders.\nCompound 6, at concentrations ranging from 0.78 µM to 50 µM, was incubated with the respective cell lines for 48 h (HepG2) or 24 h (SH-SY5Y). Then, MTS reagent was added and absorbances at 490 nm were read after 1 h. […] The reduction in SH-SY5Y cell viability (Figure 6B) of an average of 4–12% was observed over the range of concentrations.\nThe hepatoma cell line HepG2 (ATCC® HB-8065TM) and SH-SY5Y CRL-2266 neuroblastoma cell line were used to evaluate the toxicity of tested compounds. Tests were conducted as described previously. CellTiter 96® Aqueous Non-Radioactive Cell Proliferation Assay was purchased from Promega (Madison, WI, USA). Compounds were tested at 7 concentrations (0.78, 1.56, 3.125, 6.25, 12.5, 25 and 50 µM). Cell viability was determined after incubation with compounds for […]. Each experiment was performed twice in triplicate."}, "[3]": {"system": "mice", "experiment": "Histamine-induced pruritus", "format": "in vivo", "settings": "25 mg/kg i.p.", "protocol": "Intradermal injection of histamine induced scratching bouts in the amount of 62.11 ± 9.4. […].\nThe surface (around 2 cm^2) of the mice’s nape was shaved at least 2 days prior to experiments. On the day of the experiment, mice were individually placed in plastic chambers (15 × 15 × 30 cm) and after the 30 min habituation period, they were given an intradermal (i.d.) injection of histamine dihydrochloride (10 µmol/site) or chloroquine (CQ, 200 µg/site), which were dissolved in physiological saline and administrated in the constant volume of 20 μL. Immediately after the injection, scratching (series of movements considered as a single scratching bout) of the injected site by the hind paw was counted for 60 min or 30 min after histamine and CQ administration, respectively. Before pruritogens injection different groups of mice were treated i.p. with vehicle (10 mL/kg, negative control) or the dose–response of investigated compound.\nFigure 9 The effect of compound 6 and reference compound pyrilamine (Pyr) on the number of scratching bouts during 60 min-long observation in histamine-induced pruritus (A) and 30 min-long observation in chloroquine-induced pruritus (B). The tested compound or vehicle (1% solution of Tween 80) was administered intraperitoneally (i.p.) 30 min before the intradermal (i.d.) injection of histamine or chloroquine. The results are presented as bar plots showing the mean ± SEM. Statistical analysis: one-way ANOVA followed by Dunnett’s post hoc test, * p < 0.05, ** p < 0.01, *** p < 0.001, n = 8–10 mice per group."}}}
{"smiles": "CN1CCN(c2nc(N)nc(CC3CCCC3)n2)CC1", "note": "[Compound 6, 4-(Cyclopentylmethyl)-6-(4-methylpiperazin-1-yl)-1,3,5-triazin-2-amine]", "values": [{"measurement": "Pain withdrawal threshold (mechanical hyperalgesia)", "setting": "[1]; 50 mg/kg, 3 h after carrageenan (vehicle 87.3%)", "result": "122.1 % of the baseline"}, {"measurement": "Pain withdrawal threshold (mechanical hyperalgesia)", "setting": "[1]; 50 mg/kg, 6 h after carrageenan (vehicle 90.9%)", "result": "119.5 % of the baseline"}, {"measurement": "Pain withdrawal threshold (mechanical hyperalgesia)", "setting": "[1]; 50 mg/kg, third time point (time not given, presumably 24 h; vehicle 89.7%)", "result": "111.7 % of the baseline"}, {"measurement": "Paw volume increase (carrageenan oedema)", "setting": "[1]; 75 mg/kg, 1 h after carrageenan (vehicle 48.9%)", "result": 22.1, "unit": "%"}, {"measurement": "Paw withdrawal latency (thermal hyperalgesia)", "setting": "[1]; 75 mg/kg, 1 h after inflammation induction (vehicle 62.44%)", "result": "129.5 % of baseline"}, {"measurement": "Paw volume increase (carrageenan oedema)", "setting": "[1]; 75 mg/kg, 2 h after carrageenan (vehicle 79.3%)", "result": 46.3, "unit": "%"}, {"measurement": "Paw withdrawal latency (thermal hyperalgesia)", "setting": "[1]; 75 mg/kg, 2 h after inflammation induction (vehicle 65.13%)", "result": "103.6 % of baseline"}, {"measurement": "Pain withdrawal threshold (mechanical hyperalgesia)", "setting": "[1]; 75 mg/kg, 3 h after carrageenan", "result": "107.5 % of the baseline"}, {"measurement": "Paw volume increase (carrageenan oedema)", "setting": "[1]; 75 mg/kg, 3 h after carrageenan (vehicle 113.0%)", "result": 72.6, "unit": "%"}, {"measurement": "Paw withdrawal latency (thermal hyperalgesia)", "setting": "[1]; 75 mg/kg, 3 h after inflammation induction (vehicle 45.63%)", "result": "86.3 % of baseline"}, {"measurement": "Pain withdrawal threshold (mechanical hyperalgesia)", "setting": "[1]; 75 mg/kg, 6 h after carrageenan", "result": "113.2 % of the baseline"}, {"measurement": "Paw volume increase (carrageenan oedema)", "setting": "[1]; 75 mg/kg, 6 h after carrageenan (vehicle 115.2%)", "result": 76.8, "unit": "%"}, {"measurement": "Paw volume increase (carrageenan oedema)", "setting": "[1]; 75 mg/kg, 24 h after carrageenan (vehicle 114.1%)", "result": 55.8, "unit": "%"}, {"measurement": "Pain withdrawal threshold (mechanical hyperalgesia)", "setting": "[1]; 75 mg/kg, third time point (time not given, presumably 24 h)", "result": "113.8 % of the baseline"}, {"measurement": "Reduction in SH-SY5Y cell viability, average over the range of concentrations", "setting": "[2]; 0.78–50 µM", "result": "4–12%"}, {"measurement": "Toxicity in SH-SY5Y cells (MTS)", "setting": "[2]; 0.78–50 µM, 24 h incubation", "result": "no toxicity up to 50 µM"}, {"measurement": "Reduction of SH-SY5Y cell viability", "setting": "[2]; even at the highest concentration (50 µM)", "result": "≤ 50", "unit": "%"}, {"measurement": "Scratch bouts, histamine-induced pruritus, % of the control value", "setting": "[3]; 60 min observation", "result": "13.47 % of the control value"}, {"measurement": "Number of scratch bouts, histamine-induced pruritus", "setting": "[3]; 60 min observation (control 62.11 ± 9.4)", "result": "8.37 ± 1.96", "unit": "scratch bouts"}]}
